How the values were obtained:
Akt = experiment: Immunohistochemistry assay for phosphorylated Akt in H9c2 cells; format: cell-based, rat; conditions: 50 μM, 3 hours, vs vehicle
Protocol: The ability of RLip-EA-OH to increase phosphorylated Akt was assayed in H9c2 cells by immunocytochemistry followed by visualization using microscopy. H9c2 cells are a cell line derived from rat cardiac myocytes and can be manipulated to increase or decrease the level of phosphoryated Akt. Cells were inoculated onto culture plates and allowed to adhere to the bottom, treated, fixed, and permeabilized. Following permeabilization, cells were treated initially with specific phospho-Akt antibodies followed by fluorescent secondary antibodies to quantify the amount of bound primary antibody.
H9c2 cells were plated in 12 well cell culture treated plates at 70% confluence. Cells were incubated overnight to allow cell attachment. The media was changed to low serum (0.5%, fetal bovine serum [FBS]) and cells incubated for another 48 hours. Cells were treated for 3 hours with either vehicle, RLip-EA-OH (50 μM), or co-treatment with LY294002 (25 μM), fixed with 3.7% formaldehyde in phosphate buffered saline and permeabilized with 0.5% Triton X-100 in phosphate buffered saline. After permeabilization, the cells were treated with antibody specific for Akt phosphorylated at threonine-308, followed by treatment with a fluorescent labeled secondary antibody.

insulin receptor kinase = molecular target: T1, insulin receptor kinase (Homo sapiens, UniProt P06213); experiment: IRK activation assay (mobility shift kinase assay); format: biochemical
T1 construct: insulin receptor kinase domain (Millipore catalog #14-466, 80 nM); purchased Millipore 14-466
T1 sequence (P06213 1023-1298 limits assumed): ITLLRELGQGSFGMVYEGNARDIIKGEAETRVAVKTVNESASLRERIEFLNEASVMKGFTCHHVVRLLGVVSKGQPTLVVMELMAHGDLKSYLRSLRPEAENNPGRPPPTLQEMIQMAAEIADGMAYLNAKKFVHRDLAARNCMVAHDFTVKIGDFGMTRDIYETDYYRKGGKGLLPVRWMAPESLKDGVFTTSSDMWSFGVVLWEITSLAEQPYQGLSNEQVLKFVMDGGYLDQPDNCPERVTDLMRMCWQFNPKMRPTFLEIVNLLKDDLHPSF
Text: Insulin receptor kinase activity was readily measured by a mobility shift assay using a Caliper LabChip® 3000 and a 12-sipper LabChip® to detect both phosphorylated and unphosphorylated substrate (Caliper Life Sciences, Discovery Alliances and Services Division, Hanover, Md.). The mobility-shift kinase assay uses a micro fluidic chip to measure the conversion of a fluorescent peptide substrate to a phosphorylated product. The reaction mixture from a microtiter plate well was introduced through a capillary sipper onto the chip and the nonphosphorylated substrate and phosphorylated product were separated by electrophoresis and detected via laser-induced fluorescence. […] The catalytic subunits of tyrosine kinases have endogenous levels of activity in the presence of ATP and substrate, thus the results are presented as a % of control.
Specifically, each test compound was diluted to 25 times its assay concentration with 100% DMSO and added to 12 μL of an assay buffer solution (100 mM HEPES, 10 mM MnCl2, 5 mM B-GP, and 0.002% Brij) containing dithiotheritol (DTT, 2 mM) and insulin receptor kinase domain (Millipore catalog #14-466, 80 nM) prior to pre-incubation at room temperature for 15 minutes. […] The samples were placed on the LabChip 3000 to measure the amount of parent substrate and phosphorylated product. […]

IGF1R = IGF1R (Homo sapiens, UniProt P08069); experiment: IGF1R tyrosine kinase activation assay (mobility shift); format: biochemical
IGF1R, sequence (P08069 959-1367 limits assumed, species assumed): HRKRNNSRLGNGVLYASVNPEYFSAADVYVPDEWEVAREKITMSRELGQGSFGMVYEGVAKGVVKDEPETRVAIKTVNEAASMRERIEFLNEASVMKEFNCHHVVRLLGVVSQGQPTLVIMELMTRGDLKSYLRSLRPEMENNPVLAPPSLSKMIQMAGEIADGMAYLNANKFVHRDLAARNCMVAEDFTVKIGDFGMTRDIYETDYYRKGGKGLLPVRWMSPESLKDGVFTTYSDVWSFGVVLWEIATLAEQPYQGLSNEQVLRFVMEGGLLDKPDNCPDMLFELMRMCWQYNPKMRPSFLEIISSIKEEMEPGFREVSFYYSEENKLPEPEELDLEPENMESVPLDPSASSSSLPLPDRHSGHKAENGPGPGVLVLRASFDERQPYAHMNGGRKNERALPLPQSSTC
Text: (§1) IGF1R and Src tyrosine kinases have endogenous levels of activity in the presence of ATP and substrate. This activity was readily measured using a mobility shift assay using a Caliper LabChip® 3000 and a 12-sipper LabChip® to detect both phosphorylated and unphosphorylated substrate (Caliper Life Sciences, Discovery Alliances and Services Division). Enzyme, substrate and ATP concentrations were optimized for each assay. For the IGF1R assay, the final concentrations of the enzyme, peptide and ATP were 20 nM, 1.5 μM, and 1220 μM, respectively. For the Src assay, the final concentrations of the enzyme, peptide and ATP were 2.5 nM, 1.5 μM, and 17 μM, respectively.
(§2) RLip-EA-OH was evaluated at multiple concentrations for an effect on activation of IGF1 receptor kinase (IGF1R) and Src. The compounds tested activated IGF1R and Src with different selectivities.

Src = Src (Homo sapiens, UniProt P12931); experiment: Src tyrosine kinase activation assay (mobility shift); format: biochemical
Src, sequence (P12931 whole entry, species assumed): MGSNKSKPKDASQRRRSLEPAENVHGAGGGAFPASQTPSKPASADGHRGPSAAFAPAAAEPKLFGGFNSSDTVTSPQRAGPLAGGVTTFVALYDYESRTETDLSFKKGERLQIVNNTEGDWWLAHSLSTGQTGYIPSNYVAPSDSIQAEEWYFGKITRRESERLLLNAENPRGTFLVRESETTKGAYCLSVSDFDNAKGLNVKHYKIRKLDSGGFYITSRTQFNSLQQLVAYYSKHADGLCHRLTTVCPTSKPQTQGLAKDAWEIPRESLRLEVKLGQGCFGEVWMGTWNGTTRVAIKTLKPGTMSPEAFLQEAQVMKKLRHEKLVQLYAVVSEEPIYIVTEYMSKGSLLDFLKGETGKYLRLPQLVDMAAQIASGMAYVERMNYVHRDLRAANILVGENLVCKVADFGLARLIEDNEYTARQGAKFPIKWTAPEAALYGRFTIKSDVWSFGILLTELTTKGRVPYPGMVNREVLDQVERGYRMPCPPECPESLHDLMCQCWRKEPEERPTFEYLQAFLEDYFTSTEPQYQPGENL
Text: as §1, §2

CHO M1-WT3 cells = experiment: Cytosolic calcium overload assay, carbachol stimulated; format: cell-based, Chinese hamster; conditions: 200 nM carbachol, variant concentrations
Text: Cytosolic calcium increases in the CHO M1-WT3 cells when stimulated with carbachol ([Molecular Devices, FlexStation Application Note 2, Comparison of FLIPR® and FLEXstation™ for Calcium Mobilization Assays]) and may be detected with a fluorescent dye that binds calcium. An increase in fluorescence following carbachol stimulation is interpreted as an increase in cytosolic calcium. Chinese hamster ovary (CHO) cells were allowed to adhere to the bottom of a 96-well culture plate. The fluorescent dye and a test sample were placed on the plate and allowed to be taken up by the cells. The fluorescence level was measured every two seconds using a plate reader (Flexstation II, Molecular Devices, Sunnyvale Calif.). The cells were stimulated with carbachol and fluorescent data reported as the peak increase in fluorescence above baseline following carbachol stimulation. Data were normalized to the peak carbachol response in the control sample.
CHO cells from the cell line CHO-M1-WT3 were grown in Hams F12 medium supplemented with 10% FBS and 5 μg/mL G418 to maintain expression of the M1 muscarinic receptor. Cells were seeded the night before the experiment at a concentration of 30,000 cells/well in a volume of 100 μL per well of black walled, clear bottomed, 96-well microplates (“assay plates”). Cells were incubated at 37° C. and 5% CO2 overnight. […] The cells were placed into the FlexStation system to monitor fluorescence before and after the addition of 50 μL of 1 μM carbachol for a final concentration of 200 nM. Fluorescence was measured for 17 seconds prior to carbachol addition and 43 seconds following carbachol addition. The Fluo-4 dye was excited at a wavelength of 485 nm and emission measured at 525 nm. The Calcium-3 dye was excited at a wavelength of 494 nm and emission measured at 525 nm. The calcium response was reported as the peak fluorescence minus the baseline fluorescence calculated as the average of the fluorescence prior to carbachol addition.

[1] = Oxygen Radical Absorbance Capacity (ORAC) assay; conditions: mean of 3-4 experiments
Text: Peroxyl radicals are one species of reactive oxygen produced by cells during reperfusion. The presence of peroxyl radicals can be detected by fluorescein oxidation. In the presence of peroxyl radicals, fluorescein fluorescence will decay over time. In the presence of an oxygen radical scavenger, the rate of decay is diminished. The change in the rate of decay between control and in the presence of scavengers is used to measure the peroxyl radical scavenging ability of a test compound.
Each compound tested was diluted to a concentration ranging from 25 μM to 250 μM in 10 mM phosphate buffer (pH=7.4) containing 10 nM fluorescein. The buffer and compound were incubated at 37° C. for 10 minutes. After the incubation, flourescein fluorescence was measured using a plate reader (Molecular Devices Flexstation II, Ex=485, Em=520). Baseline fluorescence measurements were recorded for 15 minutes before 2,2′-azobis(2-methylpropionamidine) dihydrochloride (AAPH) was added. The fluorescence decay was recorded for 90 minutes. The fluorescence decay without compound was subtracted from the fluorescence decay with compound. The slope of the decay vs. concentration is reported as the absorbance capacity.

## C[C@H](NC(=O)[C@H](CCC(=O)O)NC(=O)CCCC[C@@H]1CCSS1)C(=O)O [RLip-EA-OH, N-(R)-lipoyl-L-glutamyl-L- alanine]
Akt
  fluorescence intensity (Akt phosphorylated at threonine-308): much brighter
Insulin receptor kinase; 100 μM
  AVG % activity above control (±SEM): 78 ± 15%
Insulin receptor kinase; 300 μM
  IRK % Increase in activity above vehicle control: 77 ± 7%
IGF1R; 100 μM
  IGF1R % activity above control (±SEM): 42 ± 1%
IGF1R; 300 μM
  IGF1R % Increase in activity above vehicle control: 33 ± 3%
Src; 100 μM
  Src % activity above control (±SEM): 70 ± 1%
Src; 300 μM
  Src % Increase in activity above vehicle control: 78 ± 2%
CHO M1-WT3 cells
  effect on carbachol stimulated flux in cytosolic calcium: diminished the flux in cytosolic calcium in a dose dependent manner
[1]
  ORAC Value relative to RLip-EA-OH: 100 ± 11
  ORAC Value relative to RLip-OH: 131 ± 6^

Reference: US8772250B2, “Compositions and methods for treating ischemia and ischemia-reperfusion injury” (Ischemix, LLC, priority 2010, dated 2014)
